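How tested: cells in 96-well plates exposed to compound for 48 hours at five concentrations. Abbreviation: GI50, concentration required for 50% inhibition of growth.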 Active and inactive are the calls of the source. No stated cut-off is given here; in the data, active = GI50 up to about 1.1 µM and inactive = higher.
Assays:
Test in all cases: growth of human tumour cells (NCI), 48 h
HOP-62 = tested on: HOP-62
LOX IMVI = tested on: LOX IMVI
RXF 393 = tested on: RXF 393
M14 = tested on: M14
IGROV-1 = tested on: IGROV-1
HCT-116 = tested on: HCT-116
Hs-578T = tested on: Hs-578T
BT-549 = tested on: BT-549
TK-10 = tested on: TK-10
OVCAR-3 = tested on: OVCAR-3
786-0 = tested on: 786-0
MDA-MB-435 = tested on: MDA-MB-435
K562 = tested on: K562
HCC 2998 = tested on: HCC 2998
KM12 = tested on: KM12
EKVX = tested on: EKVX
OVCAR-4 = tested on: OVCAR-4
T47D = tested on: T47D
SK-MEL-28 = tested on: SK-MEL-28
COLO 205 = tested on: COLO 205

Measured: GI50

C[N+](C)(C)/N=C\c1ccc(O)c(O)c1
inactive: HOP-62 > 100 µM | LOX IMVI > 100 µM | RXF 393 > 100 µM | M14 > 100 µM | IGROV-1 > 100 µM | HCT-116 > 100 µM | Hs-578T > 100 µM | BT-549 > 100 µM | TK-10 > 100 µM | OVCAR-3 > 100 µM | 786-0 > 100 µM | MDA-MB-435 > 100 µM | K562 > 100 µM | HCC 2998 > 100 µM | KM12 > 100 µM | EKVX > 100 µM | OVCAR-4 > 100 µM | T47D > 100 µM | SK-MEL-28 > 59.4 µM | COLO 205 > 100 µM

COc1cc(/C=N/N=C2NCCN2)ccc1O
inactive: HOP-62 > 100 µM | LOX IMVI > 100 µM | RXF 393 > 100 µM | M14 > 100 µM | IGROV-1 > 100 µM | HCT-116 > 100 µM | Hs-578T > 100 µM | BT-549 > 100 µM | TK-10 > 100 µM | OVCAR-3 > 100 µM | 786-0 > 100 µM | MDA-MB-435 > 100 µM | K562 > 100 µM | HCC 2998 > 100 µM | KM12 > 100 µM | EKVX > 100 µM | OVCAR-4 > 100 µM | T47D > 100 µM | SK-MEL-28 > 100 µM | COLO 205 > 100 µM

COC(=O)C1(Cc2ccc(C)cc2)Cc2c(C)cccc2C1=O (stereo not given)
inactive: HOP-62 19.3 µM | LOX IMVI 18.9 µM | RXF 393 9.71 µM | M14 16.6 µM | IGROV-1 16.4 µM | HCT-116 13.3 µM | Hs-578T 15.9 µM | BT-549 16.3 µM | TK-10 26.2 µM | OVCAR-3 11.7 µM | 786-0 20.5 µM | MDA-MB-435 3.08 µM | K562 8.04 µM | HCC 2998 16.8 µM | KM12 6.75 µM | EKVX 18.2 µM | OVCAR-4 20.3 µM | T47D 18.5 µM | SK-MEL-28 26 µM | COLO 205 12.1 µM

CC(=O)OC1CCC2(C)C(=CCC3C2CCC2(C)C(C(C)C(=O)O)CCC32)C1 (stereo not given)
inactive: HOP-62 > 100 µM | LOX IMVI > 100 µM | RXF 393 69.5 µM | M14 > 100 µM | IGROV-1 > 100 µM | HCT-116 75.9 µM | Hs-578T > 100 µM | BT-549 > 100 µM | TK-10 > 100 µM | OVCAR-3 > 100 µM | 786-0 > 100 µM | MDA-MB-435 > 100 µM | K562 > 100 µM | HCC 2998 57 µM | KM12 84.7 µM | EKVX 56.9 µM | OVCAR-4 > 100 µM | T47D > 100 µM | SK-MEL-28 > 100 µM | COLO 205 39.9 µM

CC(C)(C)OC(=O)NCCCCC(N)NC(=O)c1ccccc1 (stereo not given)
inactive: HOP-62 > 100 µM | LOX IMVI > 100 µM | RXF 393 > 100 µM | M14 > 100 µM | IGROV-1 > 100 µM | HCT-116 > 100 µM | Hs-578T > 100 µM | BT-549 > 100 µM | TK-10 > 100 µM | OVCAR-3 > 100 µM | 786-0 > 100 µM | MDA-MB-435 > 100 µM | K562 > 100 µM | HCC 2998 > 100 µM | KM12 > 100 µM | EKVX > 100 µM | OVCAR-4 > 100 µM | T47D > 100 µM | SK-MEL-28 > 100 µM | COLO 205 > 100 µM

O=C(/C=C/c1ccc(-c2ccccc2[N+](=O)[O-])o1)NCc1ccc(C(=O)NCCc2ccccc2)cc1
inactive: HOP-62 > 100 µM | LOX IMVI > 100 µM | RXF 393 > 100 µM | M14 > 100 µM | IGROV-1 > 100 µM | HCT-116 > 100 µM | Hs-578T > 100 µM | BT-549 > 100 µM | TK-10 > 100 µM | OVCAR-3 > 100 µM | 786-0 > 100 µM | MDA-MB-435 3.92 µM | K562 > 100 µM | HCC 2998 > 100 µM | KM12 > 100 µM | EKVX > 100 µM | OVCAR-4 > 100 µM | T47D > 100 µM | SK-MEL-28 > 100 µM | COLO 205 > 100 µM

CCCC(=O)OC[n+]1cccc(-c2c(COC(=O)NC(C)C)c(COC(=O)NC(C)C)c3n2CCC3)c1
inactive: HOP-62 49.8 µM | LOX IMVI 35.2 µM | RXF 393 23.1 µM | M14 50.9 µM | IGROV-1 > 46.3 µM | HCT-116 19.7 µM | Hs-578T > 100 µM | BT-549 > 79.6 µM | TK-10 > 72.4 µM | OVCAR-3 > 77.8 µM | 786-0 37.5 µM | MDA-MB-435 98.2 µM | K562 50.8 µM | HCC 2998 > 100 µM | KM12 > 100 µM | EKVX > 100 µM | OVCAR-4 58.6 µM | T47D > 91.8 µM | SK-MEL-28 > 100 µM | COLO 205 73.3 µM

CC(C)NC(=O)OCCN=C1c2ccccc2CCc2ccccc21
inactive: HOP-62 21 µM | LOX IMVI 26.6 µM | RXF 393 39.7 µM | M14 20.3 µM | IGROV-1 35.1 µM | HCT-116 21.9 µM | Hs-578T 24 µM | BT-549 13.3 µM | TK-10 26.1 µM | OVCAR-3 25 µM | 786-0 43.6 µM | MDA-MB-435 30.6 µM | K562 21.5 µM | HCC 2998 18.4 µM | KM12 37.2 µM | EKVX 23.8 µM | OVCAR-4 12.2 µM | T47D 21 µM | SK-MEL-28 19.7 µM | COLO 205 19.1 µM

O=C1c2cc3c(cc2NC(c2ccccc2F)C1O)OCO3 (stereo not given)
inactive: HOP-62 22.7 µM | LOX IMVI 17.9 µM | RXF 393 22.4 µM | M14 10.4 µM | IGROV-1 13.5 µM | HCT-116 3.97 µM | Hs-578T 18.1 µM | BT-549 57.1 µM | TK-10 21 µM | OVCAR-3 20.5 µM | 786-0 15.5 µM | MDA-MB-435 3.08 µM | K562 6.85 µM | HCC 2998 15.5 µM | KM12 6.65 µM | EKVX 16.9 µM | OVCAR-4 35.8 µM | T47D > 59.6 µM | SK-MEL-28 18.5 µM | COLO 205 5.3 µM

CC(=O)Nc1ccc(-c2nc3cc(Cl)ccc3o2)cc1
inactive: HOP-62 > 50 µM | LOX IMVI > 50 µM | RXF 393 > 50 µM | M14 > 50 µM | IGROV-1 > 50 µM | HCT-116 > 50 µM | Hs-578T > 50 µM | BT-549 > 50 µM | TK-10 > 50 µM | OVCAR-3 > 50 µM | 786-0 > 50 µM | MDA-MB-435 > 50 µM | K562 > 50 µM | HCC 2998 40.1 µM | KM12 > 50 µM | EKVX > 50 µM | OVCAR-4 > 50 µM | T47D 20.4 µM | SK-MEL-28 > 50 µM | COLO 205 > 50 µM

From ChEMBL document CHEMBL1201862, “PubChem BioAssay data set” (2004)
